# Earlier results as cited in US20120034276A1, “SOLID PREPARATION” (ASKA Pharmaceutical Co., Ltd., priority 2009, published 2012).
# Residues, ends and D or L forms follow the SMILES beside them.
# Conditions: numeral in parenthesis, for reference; first or second dissociation step
compound,measurement,value
CC(O)C(=O)O (centres unmarked) [lactic acid],acid dissociation constant pKa,3.66
CCCC[C@H](N)C(=O)O [norleucine],acid dissociation constant pKa,2.30
CSCC[C@H](N)C(=O)O [methionine],acid dissociation constant pKa,2.15
O=CC(=O)O [glyoxylic acid],acid dissociation constant pKa,3.18
N=C(N)NCCC[C@H](N)C(=O)O [arginine],acid dissociation constant pKa,2.05
CNCC(=O)O [N-methylglycine],acid dissociation constant pKa,2.20
Nc1ccc(C(=O)O)cc1 [aminobenzoic acid],acid dissociation constant pKa,2.02-3.12
O=[PH](O)O [phosphonic acid],acid dissociation constant pKa,1.5
C[C@H](NC(=O)CNC(=O)CN)C(=O)O [glycylglycyl-L-alanine],acid dissociation constant pKa,3.18
"O=C(O)c1cccc(C(=O)O)n1 [2,6-pyridinedicarboxylic acid]",acid dissociation constant pKa,2.09
"CN(C)CC(=O)O [N,N-dimethylglycine]",acid dissociation constant pKa,2.08
NCC(=O)NC(Cc1c[nH]cn1)C(=O)NCC(=O)O (racemic) [glycyl-DL-histidylglycine],acid dissociation constant pKa,3.26
C[C@H](N)C(=O)N[C@@H](C)C(=O)O [L-alanyl-L-alanine] (H-Ala-Ala-OH),acid dissociation constant pKa,3.20
NCCCC[C@H](N)C(=O)O [lysine],acid dissociation constant pKa,2.04
NCC(=O)NCC(=O)N[C@@H](Cc1c[nH]cn1)C(=O)O [glycylglycyl-L-histidine] (H-Gly-Gly-His-OH),acid dissociation constant pKa,2.72
O=C(O)CC(O)C(=O)O (centres unmarked) [malic acid],acid dissociation constant pKa,3.24
N[C@@H](Cc1c[nH]cn1)C(=O)NCC(=O)O [L-histidylglycine] (H-His-Gly-OH),acid dissociation constant pKa,2.84
O=C(O)CC(O)(CC(=O)O)C(=O)O [citric acid],acid dissociation constant pKa,2.87
N[C@@H](Cc1c[nH]c2ccccc12)C(=O)O [tryptophan],acid dissociation constant pKa,2.35
N[C@@H](Cc1ccccc1)C(=O)O [phenylalanine],acid dissociation constant pKa,2.26
NCC(=O)NCC(=O)NCC(=O)N[C@@H](Cc1c[nH]cn1)C(=O)O [glycylglycylglycyl-L-histidine] (H-GGGH-OH),acid dissociation constant pKa,2.90
N[C@@H](CO)C(=O)O [serine],acid dissociation constant pKa,2.13
CC(C)[C@H](N)C(=O)O [valine],acid dissociation constant pKa,2.26
N[C@@H](CCC(=O)O)C(=O)O [glutamic acid],acid dissociation constant pKa,2.18
CC(=O)C(=O)O [pyruvic acid],acid dissociation constant pKa,2.26
C[C@H](N)C(=O)NCC(=O)O [L-alanylglycine] (H-Ala-Gly-OH),acid dissociation constant pKa,3.10
O=C(O)C(O)C(O)C(=O)O (centres unmarked) [tartaric acid],acid dissociation constant pKa,2.82-2.99
C[C@H](NC(=O)CN)C(=O)O [glycyl-L-alanine] (H-Gly-Ala-OH),acid dissociation constant pKa,3.07
C[C@H](N)C(=O)NCC(=O)NCC(=O)NCC(=O)O [L-alanylglycylglycylglycine] (H-AGGG-OH),acid dissociation constant pKa,3.18
N[C@@H](CC(=O)O)C(=O)O [aspartic acid],acid dissociation constant pKa,1.93
O=C(O)CCC(=O)O [succinic acid],acid dissociation constant pKa,4.00
NCC(=O)N[C@@H](Cc1c[nH]cn1)C(=O)O [glycyl-L-histidine] (H-Gly-His-OH),acid dissociation constant pKa,2.54
O=C(O)[C@H](O)[C@@H](O)[C@H](O)[C@H](O)CO [gluconic acid],acid dissociation constant pKa,3.86
C[C@H](N)C(=O)O [alanine],acid dissociation constant pKa,2.30
C[C@@H](O)[C@H](N)C(=O)O [threonine],acid dissociation constant pKa,2.21
NC(=O)NCCC[C@H](N)C(=O)O [citrulline],acid dissociation constant pKa,2.43
O=C(O)CO [glycolic acid],acid dissociation constant pKa,3.63
